Results from EP2951180B1, “2,6,7,8 SUBSTITUTED PURINES AS HDM2 INHIBITORS” (Merck Sharp & Dohme Corp., priority 2013, dated 2014).

Biological target: T1, HDM2 (Homo sapiens, UniProt Q00987)
T1 construct: Thioredoxin (N); made in house; host or cells: E. coli strain BL21(DE3)Rosetta
Test: HDM2 FRET assay (inhibition of binding of FITC labeled p53-pocket peptide to HDM2)
Settings: Table 6; read-out: FRET IC50
Source text: Methods: An HDM2 FRET assay was developed to assess the compounds' inhibitory activity towards binding of p53 protein. […] Protein was purified using Ni-affinity chromatography, followed by size exclusion chromatography using Superdex 75 26/60 column. […] The HDM2 assay buffer contained 1x Phosphate Buffered Saline (Invitrogen, Cat#14190), 0.01% BSA (Jackson ImmunoResearch, Cat# 001-000-162), 0.01% Tween-20. In the 1X assay buffer recombinant HDM2 protein, peptide and Lumi4-Tb Cryptate-conjugate mouse anti-6xHis antibody (cisbio, Cat#Tb61HISTLB) were added and transferred to ProxiPlate PLUS (PerkinElmer, Cat#6008269), containing compounds so that final DMSO concentration is 0.1% . Final concentrations of reagents in the assay wells are 0.5 nM HDM2, 0.25nM anti HIS (Tb label) antibody and 3nM peptide. […] Ratio of em520/em495 was used to calculate %inhibition and to obtain IC50 with 4-parameter logistic equation.
IC50 DETERMINATIONS: Dose-response curves were plotted from the inhibition data, from 10 point serial dilutions of inhibitory compounds. Concentration of compound was plotted against em520/Cem495 ratio signal. To generate IC50 values, the dose-response curves were fitted to a standard sigmoidal curve and IC50 values were derived by nonlinear regression analysis.

T1 sequence (Q00987 17-125): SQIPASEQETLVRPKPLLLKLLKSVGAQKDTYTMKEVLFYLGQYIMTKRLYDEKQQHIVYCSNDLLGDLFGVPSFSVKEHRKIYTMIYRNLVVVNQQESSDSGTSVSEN

Q: With `Cc1cccc(-c2nc3nc(C(=O)O)nc(N[C@H](C)C4CCC4)c3n2Cc2ccc(Cl)cc2)c1` [Example 6.2, 7-(4-chlorobenzyl)-6-{[(1R)-1-cyclobutylethyl]amino}-8-(3-methylphenyl)-7H-purine-2-carboxylic acid] as the molecule, how does the IC50 read?
A: 13.9 nM

Same assay, conditions: Table 11; read-out: FRET IC50

Q: With `C[C@@H](Nc1nc(-c2noc(=O)[nH]2)nc2nc(N(C)[C@@H]3CCCC[C@@H]3O)n(C[C@H]3CC[C@H](C)CC3)c12)C1CCC1` (stereo in doubt) [Example 11.132, 3-(6-{[(1R)-1-cyclobutylethyl]amino}-8-{[(1R,2S)-2-hydroxycyclohexyl](methyl)amino}-7-[(trans-4-methylcyclohexyl)methyl]-7H-purin-2-yl)-1,2,4-oxadiazol-5(4H)-one] as the molecule, how does the IC50 read?
A: 25.6 nM

Q: `C[C@@H](Nc1nc(-c2noc(=O)[nH]2)nc2nc(N(C)[C@@H]3CCCC[C@@H]3O)n(C[C@H]3CC[C@H](C)CC3)c12)C1CCC1` (stereo in doubt) [Example 11.134, 3-(6-{[(1R)-1-cyclobutylethyl]amino}-8-{[(1R,2S)-2-hydroxycyclohexyl] (methyl)amino}-7-[(trans-4-methylcyclohexyl)methyl]-7H-purin-2-yl)-1,2,4-oxadiazol-5(4H)-one] was tested. Which IC50 did it give?
A: 9.46 nM

Q: How did the IC50 turn out when `C[C@@H]1OCCN(c2nc3nc(-c4n[nH]c(=O)o4)nc(N[C@H](C)C4CCC4)c3n2C[C@H]2CC[C@H](C)CC2)[C@H]1C` (stereo in doubt) [Example 11.167, 5-(6-{[(1R)-1-cyclobutylethyl]amino}-8-[(trans)-2,3-dimethylmorpholin-4-yl]-7-[(trans-4-methylcyclohexyl)methyl]-7H-purin-2-yl)-1,3,4-oxadiazol-2(3H)-one] was run?
A: 2.16 nM

Same assay, conditions: Table 21; read-out: FRET IC50

Q: With `C[C@@H](Nc1nc(-c2noc(=O)[nH]2)nc2nc(C3CCCCC3c3ccccc3)n(C[C@H]3CC[C@H](C)CC3)c12)C1CCC1` (single isomer, unassigned) [Example 21.26] as the molecule, how does the IC50 read?
A: 21.6 nM

Q: How did the IC50 turn out when `CC(c1ccccc1F)c1nc2nc(-c3noc(=O)[nH]3)nc(N[C@H](C)C3CCC3)c2n1C[C@H]1CC[C@H](C)CC1` (single isomer, unassigned) [Example 21.35] was run?
A: 2.03 nM

Q: How did the IC50 turn out when `CC(c1ccccc1F)c1nc2nc(-c3noc(=O)[nH]3)nc(N[C@H](C)C3CCC3)c2n1C[C@H]1CC[C@H](C)CC1` (single isomer, unassigned) [Example 21.36] was run?
A: 43.1 nM

Q: `COCC(c1ccccc1)c1nc2nc(-c3noc(=O)[nH]3)nc(N[C@H](C)C3CCC3)c2n1C[C@H]1CC[C@H](C)CC1` (single isomer, unassigned) [Example 21.41, 3-(6-{[(1R)-1-cyclobutylethyl]amino}-8-[(1R or S)-2-methoxy-1-phenylethyl]-7-[(trans-4-methylcyclohexyl)methyl]-7H-purin-2-yl)-1,2,4-oxadiazol-5(4H)-one] was tested. Which IC50 did it give?
A: 3.25 nM

Q: Which IC50 does the source give for `COCC(c1ccccc1)c1nc2nc(-c3noc(=O)[nH]3)nc(N[C@H](C)C3CCC3)c2n1C[C@H]1CC[C@H](C)CC1` (single isomer, unassigned) [Example 21.42, 3-(6-{[(1R)-1-cyclobutylethyl]amino}-8-[(1S or R)-2-methoxy-1-phenylethyl]-7-[(trans-4-methylcyclohexyl)methyl]-7H-purin-2-yl)-1,2,4-oxadiazol-5(4H)-one] here?
A: 3.41 nM

Same assay, conditions: Table 22; read-out: FRET IC50

Q: `C[C@@H](Nc1nc(-c2noc(=O)[nH]2)nc2nc(C(C)(O)c3ccccn3)n(C[C@H]3CC[C@H](C)CC3)c12)C1CCC1` (single isomer, unassigned) [Example 22.6] was tested. Which IC50 did it give?
A: 10.4 nM

Q: Which IC50 does the source give for `C[C@@H](Nc1nc(-c2noc(=O)[nH]2)nc2nc(C(C)(O)c3ccccn3)n(C[C@H]3CC[C@H](C)CC3)c12)C1CCC1` (single isomer, unassigned) [Example 22.7] here?
A: 19.9 nM

Q: With `C[C@@H](Nc1nc(-c2noc(=O)[nH]2)nc2nc(C(C)(O)C(F)(F)F)n(C[C@H]3CC[C@H](C)CC3)c12)C1CCC1` (single isomer, unassigned) [Example 22.12] as the molecule, how does the IC50 read?
A: 26.7 nM

Q: For `C[C@@H](Nc1nc(-c2noc(=O)[nH]2)nc2nc(C(C)(O)C(F)(F)F)n(C[C@H]3CC[C@H](C)CC3)c12)C1CCC1` (single isomer, unassigned) [Example 22.13], which IC50 is on record?
A: 5.84 nM

Q: For `CC(O)c1nc2nc(-c3noc(=O)[nH]3)nc(N[C@H](C)C3CCC3)c2n1C[C@H]1CC[C@H](C)CC1` (single isomer, unassigned) [Example 22.14], which IC50 is on record?
A: 81.1 nM

Q: With `CC(O)c1nc2nc(-c3noc(=O)[nH]3)nc(N[C@H](C)C3CCC3)c2n1C[C@H]1CC[C@H](C)CC1` (single isomer, unassigned) [Example 22.15] as the molecule, how does the IC50 read?
A: 45.1 nM

Q: `COC(c1ccccc1)c1nc2nc(-c3noc(=O)[nH]3)nc(N[C@H](C)C3CCC3)c2n1C[C@H]1CC[C@H](C)CC1` (single isomer, unassigned) [Example 22.19, 3-(6-{[(1R)-1-cyclobutylethyl]amino}-8-[(R or S)-methoxy(phenyl)methyl]-7-[(trans-4-methylcyclohexyl)methyl]-7H-purin-2-yl)-1,2,4-oxadiazol-5(4H)-one] was tested. Which IC50 did it give?
A: 7.7 nM

Q: With `COC(c1ccccc1)c1nc2nc(-c3noc(=O)[nH]3)nc(N[C@H](C)C3CCC3)c2n1C[C@H]1CC[C@H](C)CC1` (single isomer, unassigned) [Example 22.20, 3-(6-{[(1R)-1-cyclobutylethyl]amino}-8-[(S or R)-methoxy(phenyl)methyl]-7-[(trans-4-methylcyclohexyl)methyl]-7H-purin-2-yl)-1,2,4-oxadiazol-5(4H)-one] as the molecule, how does the IC50 read?
A: 1.5 nM

Q: For `C[C@@H](Nc1nc(-c2noc(=O)[nH]2)nc2nc(C(C)(O)c3ccccc3)n(C[C@H]3CC[C@H](C)CC3)c12)C1CCC1` (single isomer, unassigned) [Example 22.23], which IC50 is on record?
A: 6.38 nM

Q: For `C[C@@H](Nc1nc(-c2noc(=O)[nH]2)nc2nc(C(C)(O)c3ccccc3)n(C[C@H]3CC[C@H](C)CC3)c12)C1CCC1` (single isomer, unassigned) [Example 22.24], which IC50 is on record?
A: 33.8 nM

Q: `C[C@@H](Nc1nc(-c2noc(=O)[nH]2)nc2nc(C(O)(c3ccccc3)C(F)(F)F)n(C[C@H]3CC[C@H](C)CC3)c12)C1CCC1` (single isomer, unassigned) [Example 22.25] was tested. Which IC50 did it give?
A: 501 nM

Q: How did the IC50 turn out when `C[C@@H](Nc1nc(-c2noc(=O)[nH]2)nc2nc(C(O)(c3ccccc3)C(F)(F)F)n(C[C@H]3CC[C@H](C)CC3)c12)C1CCC1` (single isomer, unassigned) [Example 22.28] was run?
A: 27.3 nM

Q: Which IC50 does the source give for `C[C@@H](Nc1nc(-c2noc(=O)[nH]2)nc2nc(C(O)(CO)c3ccccc3)n(C[C@H]3CC[C@H](C)CC3)c12)C1CCC1` (single isomer, unassigned) [Example 22.60] here?
A: 113 nM

Q: `C[C@@H](Nc1nc(-c2noc(=O)[nH]2)nc2nc(C(O)(CO)c3ccccc3)n(C[C@H]3CC[C@H](C)CC3)c12)C1CCC1` (single isomer, unassigned) [Example 22.61] was tested. Which IC50 did it give?
A: 2.8 nM

Q: `C[C@@H](Nc1nc(-c2noc(=O)[nH]2)nc2nc(C(C)(F)c3ccccc3F)n(C[C@H]3CC[C@H](C)CC3)c12)C1CCC1` (single isomer, unassigned) [Example 22.62] was tested. Which IC50 did it give?
A: 0.563 nM

Q: `C[C@@H](Nc1nc(-c2noc(=O)[nH]2)nc2nc(C(C)(F)c3ccccc3F)n(C[C@H]3CC[C@H](C)CC3)c12)C1CCC1` (single isomer, unassigned) [Example 22.65] was tested. Which IC50 did it give?
A: 22.6 nM

Q: `Cc1nc(C(C)(F)c2nc3nc(-c4noc(=O)[nH]4)nc(N[C@H](C)C4CCC4)c3n2C[C@H]2CC[C@H](C)CC2)c(C)s1` (single isomer, unassigned) [Example 22.73] was tested. Which IC50 did it give?
A: 4.06 nM

Q: Which IC50 does the source give for `Cc1nc(C(C)(F)c2nc3nc(-c4noc(=O)[nH]4)nc(N[C@H](C)C4CCC4)c3n2C[C@H]2CC[C@H](C)CC2)c(C)s1` (single isomer, unassigned) [Example 22.75] here?
A: 5.48 nM

Q: How did the IC50 turn out when `C[C@@H](Nc1nc(-c2noc(=O)[nH]2)nc2nc(C(C)(F)c3ccccc3)n(C[C@H]3CC[C@H](C)CC3)c12)C1CCC1` (single isomer, unassigned) [Example 22.77] was run?
A: 2.95 nM

Q: For `C[C@@H](Nc1nc(-c2noc(=O)[nH]2)nc2nc(C(C)(F)c3ccccc3)n(C[C@H]3CC[C@H](C)CC3)c12)C1CCC1` (single isomer, unassigned) [Example 22.78], which IC50 is on record?
A: 12.3 nM

Same assay, conditions: Table 23; read-out: FRET IC50

Q: How did the IC50 turn out when `COC(c1ccccc1)c1nc2nc(-c3noc(=O)[nH]3)nc(-c3cccc(Cl)c3)c2n1C[C@H]1CC[C@H](C)CC1` (single isomer, unassigned) [Example 23.44, 3-{6-(3-chlorophenyl)-8-[methoxy(phenyl)methyl]-7-[(trans-4-methylcyclohexyl)methyl] -7H-purin-2-yl}-1,2,4-oxadiazol-5(4H)-one] was run?
A: 4.53 nM

Q: How did the IC50 turn out when `COC(C)(c1ccccc1F)c1nc2nc(-c3noc(=O)[nH]3)nc(-c3cncc(Cl)c3)c2n1C[C@H]1CC[C@H](C)CC1` (single isomer, unassigned) [Example 23.49, 3-{6-(5-chloropyridin-3-yl)-8-[1-(2-fluorophenyl)-1-methoxyethyl]-7-[(trans-4-methylcyclohexyl)methyl]-7H-purin-2-yl}-1,2,4-oxadiazol-5(4H)-one] was run?
A: 0.888 nM

Same assay, conditions: read-out: inh. at 1000 nM (FRET)

Q: For `CCC1CCN(c2nc(C(=O)O)nc3nc(-c4cccc(C)c4)n(Cc4ccc(C(F)(F)F)cc4)c23)C1` (centres unmarked) [Example 6.1, 6-(3-ethylpyrrolidin-1-yl)-8-(3-methylphenyl)-7-[4-(trifluoromethyl)benzyl]-7H-purine-2-carboxylic acid], which inhibition at 1 µM is on record?
A: 41%
